Consider seven molecules from US7531344B2, “Induction and stabilization of enzymatic activity in microorganisms” (Georgia State University Research Foundation, Inc., priority 2006, dated 2009).

In experiment [1] the test system is nitrile hydratase. The experiment is described as follows: Nitrile hydratase induction by inducers, Example 1. Conditions: for nitrile hydratase induction compared with acrylonitrile: Table 1 comparison. The class given is cell-based, Rhodococcus sp., strain DAP 96253. The source says: (§1) In certain embodiments, activity can be referred to in terms of “units” per mass of enzyme or cells (typically based on the dry weight of the cells, e.g., units/mg cdw). A “unit” generally refers to the ability to convert a specific content of a compound to a different compound under a defined set of conditions as a function of time. In specific embodiments, 1 “unit” of nitrile hydratase activity can relate to the ability to convert 1 μmol of acrylonitrile to its corresponding amide per minute, per milligram of cells (dry weight) at a of pH 7.0 and a temperature of 30° C. Similarly, 1 unit of amidase activity can relate to the ability to convert 1 μmol of acrylamide to its corresponding acid per minute, per milligram of cells (dry weight) at a pH of 7.0 and a temperature of 30° C. Further, 1 unit of asparaginase I activity can relate to the ability to convert 1 μmol of asparagine to its corresponding acid per minute, per milligram of cells (dry weight) at a pH of 7.0 and a temperature of 30° C.
(§2) The induction of nitrile hydratase activity and amidase activity in Rhodococcus sp., strain DAP 96253, was evaluated using multiple types of inducers (1000 ppm). Three different samples were cultured in YEMEA medium containing 10 ppm cobalt and 7.5 g/L urea and supplemented with acrylonitrile, asparagine, or glutamine. The specific nitrile hydratase activity and the specific amidase activity in each sample was evaluated, and the results are provided below in Table 1, with activities provided in units/mg cdw (cell dry weight). One unit of nitrile hydratase activity relates to the ability to convert 1 μmol of acrylonitrile to its corresponding amide per minute, per milligram of cells (dry weight) at a of pH 7.0 and a temperature of 30° C. One unit of amidase activity relates to the ability to convert 1 μmol of acrylamide to its corresponding acid per minute, per milligram of cells (dry weight) pH of 7.0 and a temperature of 30° C.

Experiment [2] relates to amidase. The experiment is described as follows: Amidase induction by inducers, Example 1. The class given is cell-based, Rhodococcus sp., strain DAP 96253. Conditions: for amidase activity greater than the amidase activity resulting from the use of acrylonitrile: relative to acrylonitrile induction, Table 1.
Excerpt: as §1, §2

Experiment [3] relates to asparaginase I. The experiment is described as follows: Asparaginase I production, Example 8. The class given is cell-based. The settings on record: asparagine and glutamine 3.8 mM.
Excerpt: as §1
The induction of asparaginase I production in various nitrile hydratase producing microorganisms was evaluated. All strains were grown on YEMEA medium containing 7.5 g/L of urea and 10 ppm cobalt (provided as cobalt chloride) supplemented with asparagine (ASN), glutamine (GLN), or both asparagine and glutamine. The asparagine and glutamine were added 3.8 mM. As a comparative, enzyme production was also evaluated with supplementation was with acrylonitrile (AN), acrylamide (AMD) or acrylonitrile and acrylamide. Growth temperature was in the range of 26° C. to 30° C.

Experiment [4] concerns acrylonitrile specific nitrile hydratase. Nature of the experiment: 20 liter fermentation with asparagine feed: nitrile hydratase. The class given is cell-based, Rhodococcus sp. DAP 96253. Conditions: asparagine 0.15M at 1000 μl/min from t=10 h. The method, then: (§3) Rhodococcus sp. DAP 96253 were grown using biphasic medium as the source of inoculum for a 20 liter fermentation. The supplemental addition of medium/carbohydrate (either YEMEA, dextrose or maltose) was made to the modified R2A medium, containing cottonseed hydrolysate substituted for the Proteos Peptone 3 (PP3). Asparagine (0.15M solution) was added at a continuous rate of 1000 μl/min beginning at t=10 h. At the end of the fermentation run, 159 units per milligram cell dry weight of acrylonitrile specific nitrile hydratase, 22 units of amidase per milligram cell dry weight, and 16 g/l cell packed wet weight were produced.

The subject of experiment [5] is amidase. The experiment is described as follows: 20 liter fermentation with asparagine feed: amidase. The experiment is classed as cell-based, Rhodococcus sp. DAP 96253. The settings on record: asparagine 0.15M at 1000 μl/min from t=10 h. On the procedure:
as §3

Experiment [6] has as its system asparaginase I. Nature of the experiment: 20 liter fermentation with asparagine feed: asparaginase I. The experiment is classed as cell-based, Rhodococcus sp. DAP 96253. The settings on record: asparagine 0.15M at 1000 μl/min from t=10 h. The method, then: as §3
For experiment [7], the system named is asparaginase I. The experiment is described as follows: Effect of media composition and inducer on asparaginase I, Example 10. The class given is cell-based, Rhodococcus sp. DAP 96253. Conditions: for Asparaginase I levels / ability to induce asparaginase I activity: inducer 1000 ppm; for effect of medium additive on asparaginase I activity: maltose added to YEMEA, Cobalt 5-50 ppm with glucose or maltose.
Excerpt: as §1
Testing was performed to evaluate the effect on asparaginase I activity based upon the inducer used. In particular, testing was performed using asparagine, glutamine, succinonitrile, and isovaleronitrile as inducers (all added at 1000 ppm each).

In experiment [8] the test system is nitrile hydratase. The experiment is described as follows: Nitrile hydratase production, Example 7. The experiment is classed as cell-based. Conditions: Pseudomonas chloroaphis ATCC 43051; 30 °C; supplement 3.8 mM. On the procedure: (§4) In certain embodiments, activity can be referred to in terms of “units” per mass of enzyme or cells (typically based on the dry weight of the cells, e.g., units/mg cdw). A “unit” generally refers to the ability to convert a specific content of a compound to a different compound under a defined set of conditions as a function of time. […] The induction of nitrile hydratase production and amidase production in various nitrile hydratase producing microorganisms was evaluated. […] The asparagine and glutamine were added 3.8 mM. As a comparative, enzyme production with no supplementation was also tested. Growth temperature was in the range of 26° C. to 30° C.

Experiment [9] relates to amidase. Nature of the experiment: Amidase production, Example 7. The experiment is classed as cell-based. The settings on record: Pseudomonas chloroaphis ATCC 43051; 30 °C; supplement 3.8 mM. On the procedure:
as §4

The mark [10] stands for this setting: Rhodococcus sp. DAP 96253, YEMEA, 10 ppm cobalt, 7.5 g/L urea, inducer 1000 ppm.
The mark [11] stands for this setting: YEMEA - Glucose, Without Cobalt.
The mark [12] stands for this setting: YEMEA - Maltose, Without Cobalt.

With `C=CC#N` [Acrylonitrile, acrylonitrile], the “Nitrile Hydratase Activity” value in experiment [1] (setting [10]) was found to be 162.23 Units/mg cdw. For the same molecule, in experiment [2] (setting [10]), the “Amidase Activity” value worked out at 7.59 Units/mg cdw. The “Asparaginase I Level Based on Growth Medium Supplementation” value was determined as 14.6 Units/mg cdw in experiment [3] (Brevibacterium ketoglutaricum ATCC 21533, 30 °C); 2 Units/mg cdw in [3] (Pseudomonas chloroaphis ATCC 13985, 26 °C); 8.2 Units/mg cdw in experiment [3] (Rhodococcus rhodochrous DAP 96622 (ATCC 55898), 26 °C); 7.8 Units/mg cdw in experiment [3] (Rhodococcus sp. DAP 96253 (ATCC 55899), 30 °C).
For the molecule `NC(=O)C[C@H](N)C(=O)O` [Asparagine, asparagine], the “nitrile hydratase induction compared with acrylonitrile” value in experiment [1] is recorded as “exceeds the ability of acrylonitrile to induce such activity”. In addition, the “amidase activity greater than the amidase activity resulting from the use of acrylonitrile” value in experiment [2] is reported as “approximately 74%”. In [4], the “acrylonitrile specific nitrile hydratase produced at end of fermentation” value is 159 units per milligram cell dry weight. In addition, the “amidase produced at end of fermentation” value in [5] is 22 units per milligram cell dry weight. Further, the “asparaginase I produced at end of fermentation” value in experiment [6] was 16 units per milligram cell dry weight. Besides, the “Asparaginase I levels” value is recorded as 6.5 units/mg cell dry weight in experiment [7] (YEMEA - Glucose, With Cobalt); 5.3 units/mg cell dry weight in experiment [7] (setting [11]); 8.7 units/mg cell dry weight in [7] (setting [12]).
Take `N#CCCC#N` [Succinonitrile, succinonitrile, reference compound]: the “Asparaginase I levels” value stood at 8.5 units/mg cell dry weight in [7] (YEMEA - Glucose, With Cobalt); 6.5 units/mg cell dry weight in [7] (setting [11]); 10.0 units/mg cell dry weight in experiment [7] (YEMEA - Maltose, With Cobalt); 11.0 units/mg cell dry weight in experiment [7] (setting [12]). Further, in [7], the “ability to induce asparaginase I activity” value is recorded as “showed an ability to induce asparaginase I activity”.
As for `OC[C@H]1O[C@H](O[C@H]2[C@H](O)[C@@H](O)C(O)O[C@@H]2CO)[C@H](O)[C@@H](O)[C@@H]1O` (mixture of isomers) [maltose], in experiment [7], the “effect of medium additive on asparaginase I activity” value is listed as “Higher asparaginase I activity”.
On the same count and under the same terms, for `[Co]` [Cobalt] the value was “resulted in improvements”.
In the case of `NC(=O)CC[C@H](N)C(=O)O` [Glutamine, glutamine], the “nitrile hydratase induction compared with acrylonitrile” value in experiment [1] was “exceeds the ability of acrylonitrile to induce such activity”. Moreover, the “amidase activity greater than the amidase activity resulting from the use of acrylonitrile” value in experiment [2] was “approximately 37%”. The “Nitrile Hydratase Level Based on Growth Medium Supplementation” value in experiment [8] is reported as “No”. For the same molecule, in [9], the “Amidase Level Based on Growth Medium Supplementation” value is listed as “No”. In addition, in experiment [3] (Pseudomonas chloroaphis ATCC 43051, 30 °C), the “Asparaginase I Level Based on Growth Medium Supplementation” value was “No”. Besides, the “Asparaginase I levels” value was determined as 1.9 units/mg cell dry weight in experiment [7] (YEMEA - Glucose, With Cobalt); 1.5 units/mg cell dry weight in [7] (setting [11]); 8.1 units/mg cell dry weight in experiment [7] (YEMEA - Maltose, With Cobalt); 9.3 units/mg cell dry weight in [7] (setting [12]). For the same molecule, the “ability to induce asparaginase I activity” value in experiment [7] is “showed an ability to induce asparaginase I activity”.
Turning to `CC(C)CC#N` [Isovaleronitrile, isovaleronitrile, reference compound], the “Asparaginase I levels” value in experiment [7] (YEMEA - Glucose, With Cobalt) stood at 2.9 units/mg cell dry weight; in experiment [7] (setting [11]), 3.5 units/mg cell dry weight; in experiment [7] (YEMEA - Maltose, With Cobalt), 7.0 units/mg cell dry weight; in experiment [7] (setting [12]), 6.8 units/mg cell dry weight.
